From patent publication US12590096B2, “Imidazo[2,1-f][1,2,4]triazin-4-amine as TLR8 agonists” (BeOne Medicines | GmbH, priority 2019, dated 2026)

Biological target: T1, human TLR 8 protein in HEK-blue hTLR 8 tool cell line (Homo sapiens, UniProt Q9NR97)
T1 construct: expressed in transfected cells; host or cells: HEK293 (HEK-Blue hTLR8)
T1 sequence (Q9NR97 27-1041): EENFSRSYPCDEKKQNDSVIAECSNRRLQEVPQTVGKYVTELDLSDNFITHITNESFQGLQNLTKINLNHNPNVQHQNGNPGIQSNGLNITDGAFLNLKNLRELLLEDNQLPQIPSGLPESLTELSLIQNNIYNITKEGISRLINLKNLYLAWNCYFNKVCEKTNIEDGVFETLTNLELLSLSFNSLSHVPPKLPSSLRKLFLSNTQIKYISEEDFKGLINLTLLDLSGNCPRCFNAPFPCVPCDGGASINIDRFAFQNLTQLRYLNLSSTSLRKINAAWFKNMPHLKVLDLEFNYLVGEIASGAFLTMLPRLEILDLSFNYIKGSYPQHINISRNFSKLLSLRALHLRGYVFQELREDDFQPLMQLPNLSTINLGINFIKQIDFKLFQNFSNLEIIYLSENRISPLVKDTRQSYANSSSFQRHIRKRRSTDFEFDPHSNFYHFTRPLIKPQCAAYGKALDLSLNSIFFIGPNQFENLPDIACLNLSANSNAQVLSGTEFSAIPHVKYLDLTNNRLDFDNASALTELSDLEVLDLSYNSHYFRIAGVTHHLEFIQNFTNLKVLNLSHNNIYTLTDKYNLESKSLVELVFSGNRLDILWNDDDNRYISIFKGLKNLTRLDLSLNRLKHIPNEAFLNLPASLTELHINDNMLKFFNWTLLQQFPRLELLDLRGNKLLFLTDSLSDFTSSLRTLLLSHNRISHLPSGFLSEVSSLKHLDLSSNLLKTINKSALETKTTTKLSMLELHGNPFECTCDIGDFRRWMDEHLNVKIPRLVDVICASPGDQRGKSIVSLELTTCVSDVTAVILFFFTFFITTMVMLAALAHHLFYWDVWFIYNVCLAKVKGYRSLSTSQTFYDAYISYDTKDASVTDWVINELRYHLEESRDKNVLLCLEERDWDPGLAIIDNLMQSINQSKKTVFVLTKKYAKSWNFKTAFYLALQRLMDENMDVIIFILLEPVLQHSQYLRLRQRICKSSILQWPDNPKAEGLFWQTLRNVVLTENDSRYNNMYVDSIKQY
Test: TLR8 stimulation determined by HEK-Blue Detection (NF-κB/SEAP reporter)
Type: cell-based
Settings: HEK-Blue hTLR8 cells, 16 h incubation, relative to maximum activation by Resiquimod or motolimod; read-out: EC50 (nmol)
Description: TLR8 Stimulation Determined by HEK-Blue Detection
This assay was designed to study the stimulation of human TLR 8 protein in HEK-blue hTLR 8 tool cell line by monitoring the activation of NF-κB. HEK-blue hTLR8 cells were obtained by co-transfection of hTLR8 gene and optimized secretory embryonic alkaline phosphatase (SEAP) reporter gene into HEK293 cells. SEAP reporter gene was put under the control of […] minimal promoter fused with five NF-κB and AP-1-binding sites. NF-κB and AP-1 were activated by stimulation with TLR 8 ligand, thus inducing the expression of SEAP. The level of SEAP can be easily determined by HEK-Blue Detection (a cell culture medium that allows real-time detection of SEAP). HEK-Blue Detection comprises all nutrients needed for cell growth and specific SEAP color substrates. The hydrolysis of substrate by SEAP produces purple/blue color which can be measured by spectrophotometer.
When growing to 50-80% confluence, HEK-Blue hTLR7/8 cells were plated into 96-well plates (costar 3599) at a density of 40,000 cells/well. Then, the compound serially diluted at 10 points with a final concentration ranging from 1 nM to 10 μm in 0.1% DMSO/HEK-Blue Detection was added. The plates were then incubated in 5% CO2 at 37° C. for 16 h. Optical density at 620-655 nm was read on BMG PHERAstar FSX instrument. The EC50 of each compound was determined by calculating the maximum activation percentage identified using Resiquimod or motolimod.
The EC50 of the tested compound of the present invention is as follows.

Row | SMILES | EC50
1 | CCC[C@H](C)Oc1nc(N)c2ncc(CC3CCN(CC(C)NC)CC3)n2n1 (single isomer, unassigned) [Compound B58, 7-((1-((R or S)-2-(methylamino)propyl)piperidin-4-yl)methyl)-2-(((S)-pent-2-yl)oxy)imidazo[2,1-f][1,2,4]triazin-4-amine] | 24 nM
2 | CCC[C@H](C)Oc1nc(N)c2ncc(CC3CCN(CC(C)NC)CC3)n2n1 (single isomer, unassigned) [Compound B59, 7-((1-((S or R)-2-(methylamino)propyl)piperidin-4-yl)methyl)-2-(((S)-pent-2-yl)oxy)imidazo[2,1-f][1,2,4]triazin-4-amine] | 21 nM
3 | CCCCOc1nc(N)c2ncc(CC3CCNCC3)n2n1 [Compound B1, 2-butoxy-7-(piperidin-4-ylmethyl)imidazo[2,1-f][1,2,4]triazin-4-amine] | 51 nM
4 | CCCC(C)Oc1nc(N)c2ncc(CC3CCNCC3)n2n1 (stereo not drawn) [Compound B2, 2-(pent-2-yloxy)-7-(piperidin-4-ylmethyl)imidazo[2,1-f][1,2,4]triazin-4-amine] | 15 nM
5 | CCCCOc1nc(N)c2ncc(CCC3CCNCC3)n2n1 [Compound B3, 2-butoxy-7-(2-(piperidin-4-yl)ethyl)imidazo[2,1-f][1,2,4]triazin-4-amine] | 346 nM
6 | CCCCNc1nc(N)c2ncc(CC3CCNCC3)n2n1 [Compound B4, N2-butyl-7-(piperidin-4-ylmethyl)imidazo[2,1-f][1,2,4]triazin-2,4-diamine] | 347 nM
7 | CCCC(C)Nc1nc(N)c2ncc(CC3CCNCC3)n2n1 (stereo not drawn) [Compound B5, N2-(pent-2-yl)-7-(piperidin-4-ylmethyl)imidazo[2,1-f][1,2,4]triazin-2,4-diamine] | 917 nM
8 | CCCC(C)Oc1nc(N)c2ncc(CC3(C)CCNCC3)n2n1 (stereo not drawn) [Compound B8, 7-((4-methylpiperidin-4-yl)methyl)-2-(pent-2-yloxy)imidazo[2,1-f][1,2,4]triazin-4-amine] | 515 nM
9 | CCCC(C)Oc1nc(N)c2ncc(CN3CCNCC3)n2n1 (stereo not drawn) [Compound B9, 2-(pent-2-yloxy)-7-(piperazin-1-ylmethyl)imidazo[2,1-f][1,2,4]triazin-4-amine] | 529 nM
10 | CCC[C@H](C)Oc1nc(N)c2ncc(CC3CCCNC3)n2n1 (stereo partly drawn) [Compound B10, 2—(((S)-pent-2-yl)oxy)-7-(piperidin-3-ylmethyl)imidazo[2,1-f][1,2,4]triazin-4-amine] | 172 nM
11 | CCCCCc1nc(N)c2ncc(CC3CCNCC3)n2n1 [Compound B11, 2-pentyl-7-(piperidin-4-ylmethyl)imidazo[2,1-f][1,2,4]triazin-4-amine] | 1790 nM
12 | CCC[C@H](C)Oc1nc(N)c2ncc(CC3CCN(C4CCNC4)CC3)n2n1 (stereo partly drawn) [Compound B13, 2—(((S)-pent-2-yl)oxy)-7-((1-(pyrrolidin-3-yl)piperidin-4-yl)methyl)imidazo[2,1-f][1,2,4]triazin-4-amine] | 387 nM
13 | CCC[C@H](C)Oc1nc(N)c2ncc(CC3CCN(CC4CCNCC4)CC3)n2n1 [Compound B14, (S)-2-(pent-2-yloxy)-7-((1-(piperidin-4-ylmethyl)piperidin-4-yl)methyl)imidazo[2,1-f][1,2,4]triazin-4-amine] | 138 nM
14 | CCCC(C)Oc1nc(N)c2ncc(CN3CCN[C@H](C)C3)n2n1 (stereo partly drawn) [Compound B15, 7—(((R)-3-methylpiperazin-1-yl)methyl)-2-(pent-2-yloxy)imidazo[2,1-f][1,2,4]triazin-4-amine] | 1080 nM
15 | CCCC(C)Oc1nc(N)c2ncc(CN3CCN[C@@H](C)C3)n2n1 (stereo partly drawn) [Compound B16, 7—(((S)-3-methylpiperazin-1-yl)methyl)-2-(pent-2-yloxy)imidazo[2,1-f][1,2,4]triazin-4-amine] | 8490 nM
16 | CCCC(C)Oc1nc(N)c2ncc(CN3CCNC[C@@H]3C)n2n1 (stereo partly drawn) [Compound B17, 7—(((S)-2-methylpiperazin-1-yl)methyl)-2-(pent-2-yloxy)imidazo[2,1-f][1,2,4]triazin-4-amine] | 3950 nM
17 | CCCC(C)Oc1nc(N)c2ncc(CN3CCNC[C@H]3C)n2n1 (stereo partly drawn) [Compound B18, 7—(((R)-2-methylpiperazin-1-yl)methyl)-2-(pent-2-yloxy)imidazo[2,1-f][1,2,4]triazin-4-amine] | 2720 nM
18 | CCC[C@H](C)Oc1nc(N)c2ncc(CC3CCN(CC4CCCN4)CC3)n2n1 (stereo partly drawn) [Compound B20, 2—(((S)-pent-2-yl)oxy)-7-((1-(pyrrolidin-2-ylmethyl)piperidin-4-yl)methyl)imidazo[2,1-f][1,2,4]triazin-4-amine] | 558 nM
19 | CCCC(C)Oc1nc(N)c2ncc(CN3CCC(NC)CC3)n2n1 (stereo not drawn) [Compound B21, 7-((4-(methylamino)piperidin-1-yl)methyl)-2-(pent-2-yloxy)imidazo[2,1-f][1,2,4]triazin-4-amine] | > 10000 nM
20 | CCCC(C)Oc1nc(N)c2ncc(CN3CCC(CNC)CC3)n2n1 (stereo not drawn) [Compound B22] | > 10000 nM
21 | CCC[C@H](C)Oc1nc(N)c2ncc(CC3CCN(C4CCNCC4)CC3)n2n1 [Compound B23, (S)-7-([1,4′-bipiperidin]-4-ylmethyl)-2-(pent-2-yloxy)imidazo[2,1-f][1,2,4]triazin-4-amine] | 143 nM
22 | CCCC(C)Oc1nc(N)c2ncc(C3(O)CC4(CCNCC4)C3)n2n1 (stereo not drawn) [Compound B24, 2-(4-amino-2-(pent-2-yloxy)imidazo[2,1-f][1,2,4]triazin-7-yl)-7-azaspiro[3.5]nona-2-ol] | > 10000 nM
23 | CCC[C@H](C)Oc1nc(N)c2ncc(CC3CCNC3)n2n1 (stereo partly drawn) [Compound B26, 2—(((S)-pent-2-yl)oxy)-7-(pyrrolidin-3-ylmethyl)imidazo[2,1-f][1,2,4]triazin-4-amine] | 99 nM
24 | CCCC(CCO)Oc1nc(N)c2ncc(CC3CCNCC3)n2n1 (stereo not drawn) [Compound B28, 3-((4-amino-7-(piperidin-4-ylmethyl)imidazo[2,1-f][1,2,4]triazin-2-yl)oxy)hexan-1-ol] | 308 nM
25 | CCCC(C)Oc1nc(N)c2ncc(CC3CCCCC3)n2n1 (stereo not drawn) [Compound B29, 7-(cyclohexylmethyl)-2-(pent-2-yloxy)imidazo[2,1-f][1,2,4]triazin-4-amine] | > 10000 nM
26 | CCC[C@H](C)Oc1nc(N)c2ncc(CC3CCC(NC)CC3)n2n1 (stereo partly drawn) [Compound B31, (S)-7-((4-(methylamino)cyclohexyl)methyl)-2-(pent-2-yloxy)imidazo[2,1-f][1,2,4]triazin-4-amine] | 103 nM
27 | CCC[C@H](C)Oc1nc(N)c2ncc(CC3CCN(C)CC3)n2n1 [Compound B32, (S)-7-((1-methylpiperidin-4-yl)methyl)-2-(pent-2-yloxy)imidazo[2,1-f][1,2,4]triazin-4-amine] | 22 nM
28 | CCC[C@H](C)Oc1nc(N)c2ncc(C[C@H]3[C@@H]4CNC[C@@H]43)n2n1 [Compound B33, 7-(((1R,5S,6s)-3-azabicyclo[3.1.0]hex-6-yl)methyl)-2-(((S)-pent-2-yl)oxy)imidazo[2,1-f][1,2,4]triazin-4-amine] | 766 nM
29 | CCCC(CO)Oc1nc(N)c2ncc(CC3CCNCC3)n2n1 (stereo not drawn) [Compound B34, 2-((4-amino-7-(piperidin-4-ylmethyl)imidazo[2,1-f][1,2,4]triazin-2-yl)oxy) pentan-1-ol] | 225 nM
30 | CCC[C@H](C)Oc1nc(N)c2ncc(C=C3CCNCC3)n2n1 [Compound B35, (S)-2-(pent-2-yloxy)-7-(piperidin-4-ylidenemethyl)imidazo[2,1-f][1,2,4]triazin-4-amine] | 921 nM
